Results as given in paper PMC6842947, “Enhanced Antiviral Activity of Human Surfactant Protein D by Site-Specific Engineering of the Carbohydrate Recognition Domain” (Frontiers in Immunology, 2019).

Tests used:
Assay in all cases: Saccharide competition of SP-D binding to BSA-mannan coated plates
iSP-D = biological target: T1, iSP-D (Homo sapiens, UniProt P35247, D344N/D350N/E309K/INS346GSS/K307Q/V271E)
T1 construct: Full-length recombinant iSP-D was generated based upon the full-length hSP-D cDNA clone; made in house; host or cells: HEK293 (HEK293E, transient transfection)
T1 sequence (P35247 with tags, fused parts or gaps V271E/K307Q/E309K/D344N/INS346GSS/D350N): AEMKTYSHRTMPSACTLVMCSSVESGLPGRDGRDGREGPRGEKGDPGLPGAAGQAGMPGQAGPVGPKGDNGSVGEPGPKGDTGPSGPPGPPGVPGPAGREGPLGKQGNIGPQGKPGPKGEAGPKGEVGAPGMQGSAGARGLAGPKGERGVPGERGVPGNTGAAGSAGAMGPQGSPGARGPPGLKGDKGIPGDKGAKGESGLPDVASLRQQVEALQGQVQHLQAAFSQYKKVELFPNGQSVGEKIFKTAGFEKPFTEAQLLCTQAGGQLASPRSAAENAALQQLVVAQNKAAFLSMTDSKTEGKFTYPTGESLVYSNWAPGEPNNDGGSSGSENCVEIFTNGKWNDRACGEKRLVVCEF

pSP-D = biological target: T2, pSP-D (Sus scrofa, UniProt Q9N1X4); set-up: species or system porcine
T2 sequence (Q9N1X4 21-378): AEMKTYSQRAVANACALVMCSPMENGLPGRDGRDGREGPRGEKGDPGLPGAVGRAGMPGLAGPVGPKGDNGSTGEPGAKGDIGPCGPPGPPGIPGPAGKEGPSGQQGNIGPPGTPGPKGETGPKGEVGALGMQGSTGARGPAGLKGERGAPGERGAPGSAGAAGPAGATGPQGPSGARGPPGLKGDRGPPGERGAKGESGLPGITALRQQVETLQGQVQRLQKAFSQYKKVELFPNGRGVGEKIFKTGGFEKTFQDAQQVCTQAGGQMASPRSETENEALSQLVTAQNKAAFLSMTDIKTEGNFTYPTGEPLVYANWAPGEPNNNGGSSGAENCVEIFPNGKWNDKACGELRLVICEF

hSP-D = biological target: T3, hSP-D (Homo sapiens, UniProt P35247)
T3 construct: The full-length recombinant collectins pSP-D and hSP-D were constructed as published; made in house; host or cells: HEK293 (HEK293E, transient transfection)
T3 sequence (P35247 21-375): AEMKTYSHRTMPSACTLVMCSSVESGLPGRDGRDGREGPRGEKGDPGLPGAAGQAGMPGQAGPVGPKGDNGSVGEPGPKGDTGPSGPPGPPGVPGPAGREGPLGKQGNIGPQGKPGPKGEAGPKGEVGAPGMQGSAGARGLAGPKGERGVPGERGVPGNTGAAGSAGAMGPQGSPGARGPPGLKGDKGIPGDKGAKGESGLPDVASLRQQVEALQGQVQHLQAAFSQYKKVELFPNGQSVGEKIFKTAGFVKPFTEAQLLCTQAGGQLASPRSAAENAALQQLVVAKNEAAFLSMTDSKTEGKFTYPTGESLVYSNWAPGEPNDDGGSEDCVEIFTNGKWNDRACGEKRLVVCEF

SMILES | IC50 (iSP-D) | IC50 (pSP-D) | IC50 (hSP-D) | IC50-value with iSP-D as compared to hSP-D (iSP-D; ratio of IC50 for inhibition of binding to BSA-mannan)
O=C[C@H](O)[C@@H](O)[C@@H](O)[C@H](O)CO [D-Galactose, D-galactose] | 13.6 mM | 6.5 mM | 13.5 mM | 
OC[C@H]1OC(O)[C@H](O)[C@@H](O)[C@@H]1O (stereo partly drawn) [D-Glucose, D-glucose] | 7.8 mM | 2.8 mM | 4.6 mM | 
O=C(CO)[C@@H](O)[C@H](O)[C@H](O)CO [Fructose, fructose] | 4.8 mM | 2.8 mM | 3.1 mM | 
CC(=O)N[C@@H]1C(O)O[C@H](CO)[C@@H](O)[C@@H]1O (stereo partly shown) [ManNAc, N-acetylmannosamine] | 3.1 mM | 8 mM | 2.2 mM | 
O[C@H]1[C@H](O)[C@@H](O)[C@H](O)[C@@H](O)[C@H]1O [Myo-Inositol, myo-inositol] |  |  |  | three times higher
